Test results as given in PMC6452851, “Properties of a cryptic lysyl oxidase from haloarchaeon Haloterrigena turkmenica” (PeerJ, 2019).

Key:
HTU-LOX (HTU-QV variant) = target: T1, HTU-LOX (HTU-QV variant) (Haloterrigena turkmenica, UniProt D2RU96); assay: Amplex red / horseradish peroxidase fluorometric H2O2 release assay; assay type: biochemical; details: inhibitor, bought as fumarate salt; 0.1 mM used as negative control; 0.1 M borate pH 8.3, 37 °C
T1 construct: gene Htur_0264; delta1-91, catalytic domain, N-terminus Gln92-Val; His-tag kept (pQE-30); full-length protein 308 residues, 33,829 Da

HTU-LOX (HTU-AA variant) = target: T2, HTU-LOX (HTU-AA variant) (Haloterrigena turkmenica, UniProt D2RU96); assay: as above; assay type: biochemical; details: 0.1 M borate pH 8.3, 37 °C; Cu2+-refolded enzyme
T2 construct: gene Htur_0264; delta1-34, signal peptide removed, N-terminus Ala35-Ala; His-tag kept (pQE-30); full-length protein 308 residues
T2 sequence (D2RU96 35-296): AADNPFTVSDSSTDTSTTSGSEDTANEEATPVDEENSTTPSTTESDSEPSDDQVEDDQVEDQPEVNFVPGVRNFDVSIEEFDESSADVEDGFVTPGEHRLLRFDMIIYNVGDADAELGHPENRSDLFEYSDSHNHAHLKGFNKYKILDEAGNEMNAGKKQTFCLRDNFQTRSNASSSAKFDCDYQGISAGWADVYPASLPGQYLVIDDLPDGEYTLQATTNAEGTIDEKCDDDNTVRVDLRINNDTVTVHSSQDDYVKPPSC

Row | Structure (SMILES) | Amplex red / horseradish peroxidase fluorometric H2O2 release assay (HTU-LOX (HTU-QV variant)) | Amplex red / horseradish peroxidase fluorometric H2O2 release assay (HTU-LOX (HTU-AA variant))
1 | N#CCCN [3-aminopropionitrile] | HTU-LOX demonstrated good sensitivity to the classical inhibitor of all LOXes—3-aminopropionitrile (BAPN) | 
2 | NCCc1c[nH]cn1 [histamine] |  | Refolded proteins HTU-QV and HTU-AA exhibit activity against a wide variety of primary amines
